Test results reported in patent US6989263B1, “Method for identifying and using compounds that inactivate HIV-1 and other retroviruses by attacking highly conserved zinc fingers in the viral nucleocapsid protein” (The United States of America as represented by the …, priority 1994, dated 2006).
Entries after “also recorded” stand apart in the source; their conditions may differ. Like-named read-outs stand apart in the source and are kept apart here.

Tests used:
HIV-1 [1] = details: for IC50: read-out: TCID (Virus): concentration of reagent required to inactivate half of a standardized number of HIV-1 virus particles, tissue culture infectivity assay; for inactivation of HIV-1 virus / infectivity, in words: PCR and viral inactivation assays
Experimental: (§1) Concomitantly, the drug treated virions are tested for activity. The virions are suspended in media (rather than solubilized) and added to target cells. The cultures are then examined to determine whether the virions are still active.

p7NC = target: T1, p7NC (Human immunodeficiency virus type 1 group M subtype B, UniProt P05888); test: HPLC analysis of reaction products of purified p7NC with reagent; format: biochemical, HIV-1; parameters: key to Protein (HPLC): reaction products / Protein (HPLC): reaction rate: formation of non-native, intra-protein disulfide links (designated “Disulfides”); some of the reagents form adducts with the cysteine residues as well (designated “Adducts”); slow: “Slow” reactions are those in which greater than 10% of the p7NC protein remained in its native form after the 10 minute incubation with reagent; very slow: “Very slow” reactions are those in which greater than 50% of the p7NC protein remained in its native form after the 10 minute incubation with reagent; fast: “Fast” reactions result in complete transformation of the p7NC protein to non-native conformations during the 10 minute incubation period
T1 construct: The NC protein of HIV-1 (MN) p7NC was expressed in E. coli; made in house; host or cells: E. coli (vector pMAL-c)
Text: Highly purified retroviral NC proteins can be produced by expression from vectors generated through recombinant DNA technology. These proteins when reconstituted with zinc (see, Summers, et al., Protein Science 1:563–567 (1992) for methods), provide the source of the NC proteins containing the zinc fingers that are the targets for attack by the compounds of this invention. When the zinc fingers in NC proteins react with identified compounds, the reaction produces a covalent change in the NC protein, and the modified protein can be separated from the unreacted protein by, for example, reversed phase HPLC.
Samples of p7NC and apo-p7 were reacted with varying amounts of cupric chloride and resulting products separated by HPLC. The reactions were carried out using 44.3 μM protein (p7NC or apo-p7) in 0.1 M Tris-HCl, pH 7.4, for 6 minutes at room temperature with varying concentrations of CuCl2 to achieve the indicated ratios of reactants, in a final volume of 0.7 ml. Chromatography was carried out on the resulting products at pH 2 (0.05% trifluoroacetic acid) on μBondapak™ C-18 (3.9×300 mm) at 1.0 ml/minute using an acetonitrile gradient (0–17%, 20 ml; 17–20%, 60 ml; 20–60%, 10 ml). Elution positions of unreacted protein (p7NC or apo-p7) are indicated as apo-p7.
A two-fold excess of NOBA was reacted with p7NC, and the products were separated by HPLC (FIG. 10) as described above for Cu^+2 and p7NC. Elution positions for the reactants (NOBA and unreacted p7NC) and products, reacted p7NC, NOBA, HABA and AzoxyBA are indicated and an elution profile is included in FIG. 10. NOBA and AzoxyBA were supplied by Octamer, Inc. (Mill Valley, Calif.) and used as HPLC standards.
The disulfide reagent of choice (each available from the Aldrich Chemical Company (Milwaukee, Wis.)) was incubated for 10 minutes with purified p7NC protein (63 μM) at a ratio of 6 molecules of reagent to 1 molecule of NC protein (there are 6 cysteine thiols per NC protein). The formation of non-native protein conformations was monitored by HPLC as described above. […] Generally, the inactivation proceeds by formation of non-native, intra-protein disulfide links (designated “Disulfides”), but some of the reagents form adducts with the cysteine residues as well (designated “Adducts”). “Slow” reactions are those in which greater than 10% of the p7NC protein remained in its native form after the 10 minute incubation with reagent. “Very slow” reactions are those in which greater than 50% of the p7NC protein remained in its native form after the 10 minute incubation with reagent. “Fast” reactions result in complete transformation of the p7NC protein to non-native conformations during the 10 minute incubation period.

HIV-1 [2] = test: microbe, parasite or virus in culture; details: Human immunodeficiency virus 1, read-out: TCID (Virus): concentration of reagent required to inactivate half of a standardized number of HIV-1 virus particles
Experimental: as §1

[3] = target: T2, p11 Nucleocapsid Protein (p11NC) (Equine infectious anemia virus, UniProt P69732); test: Cross-linking of p11NC in intact EIAV particles (gel-mobility shift); format: biochemical; details: intact EIAV (50 μM), 4× the HIV assay concentrations
T2 construct: a variety of disulfide reagents cross-link the p11NC protein in intact viral particles; endogenous in cells; host or cells: intact EIAV particles
Text: Essentially the same strategy was employed to analyze the ability of the various disulfide reagents to cross-link the p11 Nucleocapsid Protein (p11NC) in intact Equine Infectious Anemia Virus (EIAV) particles. The advantages of working with EIAV include the fact that it is not a human pathogen, and that the p11NC protein can be visualized by simple coomassie-blue staining after performing the gel-mobility shift assay (rather than by western blotting as for HIV) described above. The reaction conditions were essentially the same for the EIAV assays as for the HIV assays described above, except that the concentration of virus and disulfide reagent was 4× the concentrations used in the HIV assay above. The second number in each cell in the X-link column in Table 2 represents the time required to cross-link one-half of the p11NC protein in the intact viral particles. […] The bottom number in each cell of the X-link column, unless otherwise indicated, represents the concentration of EIAV used in the assay. Blank cells throughout Table 2 indicate that the compound has yet to be tested for the specified property.

[4] = target: T3, HIV NC protein in intact virus (Human immunodeficiency virus type 1 group M subtype B, UniProt P05888); test: Cross-linking of NC protein in intact HIV (non-reducing gel-mobility shift, western blot); format: biochemical, HIV-1; details: for X-link T-½ (min), HIV NC protein (top number): intact HIV generally 12.5 μM, reagent generally 25 μM
T3 construct: endogenous in cells; host or cells: intact HIV virions
Text: Purified concentrated retrovirus and antisera against the purified NC protein of the virus can be used to test the ability of a specific compound to penetrate the virus and react with the NC protein by forming disulfide complexes in the core of the virus. The compound is mixed with the whole retrovirus under reaction conditions appropriate for the compound. The virus is then removed from the reagent by centrifugation and disrupted in, e.g, standard SDS-PAGE sample buffer with (reduced) and without (non-reduced) 2-mercaptoethanol. The viral proteins are then separated by standard SDS-PAGE and the sample examined for the presence or absence of the monomeric NC protein in the non-reduced sample. Depending upon the virus used in the experiment and the conditions of electrophoresis, the NC protein can be visualized by protein staining methods, or by immuno-blot (e.g., western) methods. Compounds which react with the NC protein by attacking the zinc finger complexes and forming disulfide cross-linked products (i.e., which generate multimers in the mobility shift assay) inactivate the virus. Thus, compounds of interest (i.e., those which cause cross-linking) reduced the amount of monomeric NC protein detected.
In order to determine whether HIV-1MN was inactivated by NOBA, the virus was incubated with varying concentrations of NOBA (3.0, 0.3, 0.03 and 0 mM) as in Table 1. The reaction products were pelleted by centrifugation, and separated by SDS-PAGE under reducing (2% 2-mercaptoethanol, panel A), or non-reducing conditions (panel B). p7NC was visualized by immunoblot analysis using monospecific rabbit antisera to the purified NC proteins as per L. E. Henderson et al., J. Virol. 66:1856 (1992).
Disulfide reagents were further tested for their ability to disrupt NC structure in the virus, based on their ability to cause inter-NC cysteine disulfide bonds (i.e., cross-linking) in the intact virus. The formation of inter-NC cysteine disulfides creates NC multimers, which migrate through a non-reducing gel at a different rate than NC monomers, as described above. Intact HIV virus (generally 12.5 μM) was exposed to the specified reagent (generally 25 μM) for varying lengths of time and electrophoresed through a non-reducing SDS-polyacrylamide gel. HIV NC monomers and multimers were visualized by western blot analysis as described above in Example 3. The approximate time required to cross-link one-half of the NC proteins in the virus at the specified reaction conditions was then determined. […] The top number in the cells of the X-link column in Table 2 refers to the approximate time in minutes required for one-half of the HIV NC proteins to become cross-linked.

[5] = test system: SSFV (spleen focus forming virus); test: Survival of mice infected with SSFV; format: in vivo; details: oral doses, versus infected untreated mice
Text: Mice susceptible to the retrovirus SSFV (spleen focus forming virus) when injected with the virus die within 35–40 days as a result of virally-mediated transformation of cells of the spleen.

[6] = cited from earlier work
[7] = 63 μM p7NC, 6 reagent : 1 protein, 10 minutes

T2 sequence (P69732 360-435): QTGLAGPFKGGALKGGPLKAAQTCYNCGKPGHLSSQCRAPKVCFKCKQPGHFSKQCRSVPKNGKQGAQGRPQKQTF

SMILES	IC50 (HIV-1 [1]) [µM]	Protein (HPLC): reaction products (p7NC; [7])	IC50 (HIV-1 [2]) [µM]	X-link T-½ (min), EIAV p11NC (second number) [3] [min]	inactivation of HIV-1 virus / infectivity, in words (HIV-1 [1])	inactivation of HIV-1 virus / infectivity, in words (HIV-1 [1]; listed as Tetraethylthiuram disulfide)	X-link T-½ (min), HIV NC protein (top number) [4]	survival after SSFV infection [5]	Toxicity (LD-50, mouse) ([6]; IP) [mg/kg]	Toxicity (LD-50, mouse) ([6]; oral) [mg/kg]	reaction with purified p7NC (HPLC), in words (p7NC)	cross-linking of the HIV-1 NC protein in intact virus (gel-mobility shift), in words [4]	Protein (HPLC): reaction rate (p7NC; [7])
Cl.Cl.N=C(N)SSC(=N)N [Formamidine Disulfide.2HCl]	43.5	Disulfides											
CN(C)c1ccc(SSc2ccc(N(C)C)cc2)cc1 [4-(dimethylamino)phenyl disulfide]		(negative)	17.5										
CCN(CC)C(=S)SSC(=S)N(CC)CC [Tetraethylthiuram Disulfide, reference compound]		Disulfides	66	~15	inactivates the virus	inactivate HIV-1 virus	~15 min	survived SSFV infection significantly longer	75	1980	reacts with p7NC to form oxidized p7 (disulfides)		
c1ccc(SSc2ccccn2)nc1 [Aldrithiol-2]	9	Disulfides; also recorded: Adducts		~15			~15 min					caused a cross-linking of the HIV-1 NC protein	(slow) (“Slow” reactions are those in which greater than 10% of the p7NC protein remained in its native form after the 10 minute incubation with reagent)
S=C(SSC(=S)N1CCCCC1)N1CCCCC1 [Dicyclopentamethylenethiuram Disulfide]		Disulfides	4	~10			<<15 min			2870		caused a cross-linking of the HIV-1 NC protein	
O=C(SSC(=O)c1ccccc1)c1ccccc1 [Benzoyl Disulfide]		Disulfides; also recorded: Adducts	68										
